*1 amine or outer side, *2 acyl side, *3 side chain or, on linkers, in order; H or OH if unused. Where a SMILES comes first, the peptide text is derived from it. Bridges are numbered along the chain shown (N, C = ends). [ ]: non-standard residue; d: D form. Trp(1-CH2COOH) = N[C@@H](Cc1cn(CC(=O)O)c2ccccc12)C(=O)O; NMeW = CN[C@@H](Cc1c[nH]c2ccccc12)C(=O)O; Bta = N[C@@H](Cc1csc2ccccc12)C(=O)O; Hyp = O=C(O)[C@@H]1C[C@@H](O)CN1; NMeE = CN[C@@H](CCC(=O)O)C(=O)O; NMeNle = CCCC[C@H](NC)C(=O)O; NMeA = CN[C@@H](C)C(=O)O; Dab = NCC[C@H](N)C(=O)O; Dap = NC[C@H](N)C(=O)O; CO = O=C([*:1])[*:2]

In patent US10538555B2, “Macrocyclic inhibitors of the PD-1/PD-L1 and CD80(B7-1)/PD-L1 protein/protein interactions” (BRISTOL-MYERS SQUIBB COMPANY, priority 2014, dated 2020) one finds IC50 data, which are given here for 15 compounds.

This assay deals with T1, Human PD-L1/PD-1 (Homo sapiens, UniProt Q9NZQ7).
T1 construct: TVMV protease cleavage site (C); made in house; host or cells: HEK293T cells
T1 sequence (Q9NZQ7 with tags, fused parts or gaps): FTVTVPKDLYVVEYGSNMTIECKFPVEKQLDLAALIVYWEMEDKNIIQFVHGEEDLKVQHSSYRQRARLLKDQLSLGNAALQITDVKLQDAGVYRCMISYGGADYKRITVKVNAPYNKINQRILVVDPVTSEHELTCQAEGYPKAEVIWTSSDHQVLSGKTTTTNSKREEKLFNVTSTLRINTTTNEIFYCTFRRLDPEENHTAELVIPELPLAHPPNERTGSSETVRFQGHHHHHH
Put plainly: HTRF Human PD-L1/PD-1 binding assay (PD-1-Ig/PD-L1-His). Particulars: PD-L1-His 10 nM, PD-1-Ig 20 nM; class symbol; read-out: HTRF Human PD-L1/PD-1 Binding Assay IC50 Range. In a few lines: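 Competition of macrocyclic peptides for PD-1/PD-L1 binding measured by HTRF in dPBS containing 0.1% BSA and 0.05% Tween-20. Compound and PD-L1-His (10 nM final) incubated 15 min before PD-1-Ig (20 nM final) and a further 15 min.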

As to `CCCC[C@H]1C(=O)N[C@@H](CN)C(=O)N[C@H](C(=O)NCC(N)=O)CSCC(=O)N[C@@H](Cc2ccc(O)cc2)C(=O)N(C)[C@@H](C)C(=O)N[C@@H](CC(N)=O)C(=O)N2CCC[C@H]2C(=O)N[C@@H](Cc2c[nH]cn2)C(=O)N[C@@H](CCC(=O)O)C(=O)N2C[C@H](O)C[C@H]2C(=O)N[C@@H](Cc2c[nH]c3ccccc23)C(=O)N[C@@H](CCN)C(=O)N[C@@H](Cc2c[nH]c3ccccc23)C(=O)N(C)[C@@H](CCC(=O)O)C(=O)N1C` [Example 5152] ({CH2CO}-Y[NMeA]NPHE[Hyp]W[Dab]W[NMeE][NMeNle][Dap]CG-NH2; thioether N-14), the IC50 was in the range of 10 to 99.9 nM. For `CCCC[C@H]1C(=O)N(C)[C@@H](CCCC)C(=O)N[C@@H](CC(C)C)C(=O)N[C@H](C(=O)NCC(N)=O)CSCC(=O)N[C@@H](Cc2ccc(O)cc2)C(=O)N(C)[C@@H](C)C(=O)N[C@@H](CC(=O)O)C(=O)N2CCC[C@H]2C(=O)N[C@@H](CN)C(=O)N[C@@H](CCC(N)=O)C(=O)N2C[C@H](O)C[C@H]2C(=O)N[C@@H](Cc2c[nH]c3ccccc23)C(=O)N[C@@H](CCN)C(=O)N[C@@H](Cc2cn(CC(=O)O)c3ccccc23)C(=O)N1C` [Example 5153] ({CH2CO}-Y[NMeA]DP[Dap]Q[Hyp]W[Dab][Trp(1-CH2COOH)][NMeNle][NMeNle]LCG-NH2; thioether N-14) the value was 1 to 9.9 nM; for `CCCC[C@H]1C(=O)N(C)[C@@H](CCCC)C(=O)N[C@@H](CNC(=O)O)C(=O)N[C@H](C(=O)NCC(N)=O)CSCC(=O)N[C@@H](Cc2ccc(O)cc2)C(=O)N(C)[C@@H](C)C(=O)N[C@@H](CC(=O)O)C(=O)N2CCC[C@H]2C(=O)N[C@@H](CN)C(=O)N[C@@H](CCC(=O)O)C(=O)N2C[C@H](O)C[C@H]2C(=O)N[C@@H](Cc2c[nH]c3ccccc23)C(=O)N[C@@H](CCC(=O)O)C(=O)N[C@@H](Cc2c[nH]c3ccccc23)C(=O)N1C` [Example 5154] ({CH2CO}-Y[NMeA]DP[Dap]E[Hyp]WEW[NMeNle][NMeNle][Dap](CO)CG-NH2; thioether N-14), 10 to 99.9 nM.

As for `CCCC[C@H]1C(=O)N(C)[C@@H](CCCC)C(=O)N[C@@H](CCC(=O)O)C(=O)N[C@H](C(=O)NCC(N)=O)CSCC(=O)N[C@@H](Cc2ccc(O)cc2)C(=O)N(C)[C@@H](C)C(=O)N[C@@H](CC(=O)O)C(=O)N2CCC[C@H]2C(=O)N[C@@H](Cc2c[nH]cn2)C(=O)N[C@@H](CCC(N)=O)C(=O)N2C[C@H](O)C[C@H]2C(=O)N[C@@H](Cc2c[nH]c3ccccc23)C(=O)N[C@@H](CCC(=O)O)C(=O)N[C@@H](Cc2c[nH]c3ccccc23)C(=O)N1C` [Example 5158] ({CH2CO}-Y[NMeA]DPHQ[Hyp]WEW[NMeNle][NMeNle]ECG-NH2; thioether N-14), the IC50 lay in the range of 10 to 99.9 nM. For `CCCC[C@H]1C(=O)N(C)[C@@H](CCCC)C(=O)N[C@H](C)C(=O)N[C@H](C(=O)NCC(N)=O)CSCC(=O)N[C@@H](Cc2ccc(O)cc2)C(=O)N(C)[C@@H](C)C(=O)N[C@@H](CC(N)=O)C(=O)N2CCC[C@H]2C(=O)N[C@@H](Cc2c[nH]cn2)C(=O)N[C@@H](CCC(=O)O)C(=O)N2C[C@H](O)C[C@H]2C(=O)N[C@@H](Cc2c[nH]c3ccccc23)C(=O)N[C@@H](CCN)C(=O)N[C@@H](Cc2csc3ccccc23)C(=O)N1C` [Example 5159] ({CH2CO}-Y[NMeA]NPHE[Hyp]W[Dab][Bta][NMeNle][NMeNle][dA]CG-NH2; thioether N-14) the value was 1 to 9.9 nM. For `CCCC[C@H]1C(=O)N[C@@H](CN)C(=O)N[C@H](C(=O)NCC(N)=O)CSCC(=O)N[C@@H](Cc2ccc(O)cc2)C(=O)N(C)[C@@H](C)C(=O)N[C@@H](CC(N)=O)C(=O)N2CCC[C@H]2C(=O)N[C@@H](Cc2c[nH]cn2)C(=O)N[C@@H](CCC(=O)O)C(=O)N2C[C@H](O)C[C@H]2C(=O)N[C@@H](Cc2c[nH]c3ccccc23)C(=O)N[C@@H](CCN)C(=O)N[C@@H](Cc2c[nH]c3ccccc23)C(=O)N(C)[C@@H](Cc2c[nH]c3ccccc23)C(=O)N1C` [Example 5160] ({CH2CO}-Y[NMeA]NPHE[Hyp]W[Dab]W[NMeW][NMeNle][Dap]CG-NH2; thioether N-14) the value was 10 to 99.9 nM; for `CCCC[C@H]1C(=O)N(C)[C@@H](CCCC)C(=O)N[C@@H](CCC(=O)O)C(=O)N[C@H](C(=O)NCC(N)=O)CSCC(=O)N[C@@H](Cc2ccc(O)cc2)C(=O)N(C)[C@@H](C)C(=O)N[C@@H](CC(N)=O)C(=O)N2CCC[C@H]2C(=O)N[C@@H](CN)C(=O)N[C@@H](CC(C)C)C(=O)N2C[C@H](O)C[C@H]2C(=O)N[C@@H](Cc2c[nH]c3ccccc23)C(=O)N[C@@H](CCN)C(=O)N[C@@H](Cc2c[nH]c3ccccc23)C(=O)N1C` [Example 5161] ({CH2CO}-Y[NMeA]NP[Dap]L[Hyp]W[Dab]W[NMeNle][NMeNle]ECG-NH2; thioether N-14), 1 to 9.9 nM; for `CCCC[C@H]1C(=O)N(C)[C@@H](CCCC)C(=O)N[C@@H](CCC(=O)O)C(=O)N[C@H](C(=O)NCC(N)=O)CSCC(=O)N[C@@H](Cc2ccc(O)cc2)C(=O)N(C)[C@@H](C)C(=O)N[C@@H](CC(=O)O)C(=O)N2CCC[C@H]2C(=O)N[C@@H](CN)C(=O)N[C@@H](CC(C)C)C(=O)N2C[C@H](O)C[C@H]2C(=O)N[C@@H](Cc2c[nH]c3ccccc23)C(=O)N[C@@H](CCN)C(=O)N[C@@H](Cc2c[nH]c3ccccc23)C(=O)N1C` [Example 5162] ({CH2CO}-Y[NMeA]DP[Dap]L[Hyp]W[Dab]W[NMeNle][NMeNle]ECG-NH2; thioether N-14), 1 to 9.9 nM. As to `CCCC[C@H]1C(=O)N(C)[C@@H](CCCC)C(=O)N[C@@H](CN)C(=O)N[C@H](C(=O)NCC(N)=O)CSCC(=O)N[C@@H](Cc2ccc(O)cc2)C(=O)N(C)[C@@H](C)C(=O)N[C@@H](CC(=O)O)C(=O)N2CCC[C@H]2C(=O)N[C@@H](Cc2c[nH]cn2)C(=O)N[C@@H](CCC(N)=O)C(=O)N2C[C@H](O)C[C@H]2C(=O)N[C@@H](Cc2c[nH]c3ccccc23)C(=O)N[C@@H](CO)C(=O)N[C@@H](Cc2cn(CC(=O)O)c3ccccc23)C(=O)N1C` [Example 5163] ({CH2CO}-Y[NMeA]DPHQ[Hyp]WS[Trp(1-CH2COOH)][NMeNle][NMeNle][Dap]CG-NH2; thioether N-14), the IC50 lay in the range of 1 to 9.9 nM. Next, `CCCC[C@H]1C(=O)N(C)[C@@H](CCCC)C(=O)N[C@@H](CCC(=O)O)C(=O)N[C@H](C(=O)NCC(N)=O)CSCC(=O)N[C@@H](Cc2ccc(O)cc2)C(=O)N(C)[C@@H](C)C(=O)N[C@@H](CC(=O)O)C(=O)N2CCC[C@H]2C(=O)N[C@@H](CN)C(=O)N[C@@H](CC(C)C)C(=O)N2C[C@H](O)C[C@H]2C(=O)N[C@@H](Cc2c[nH]c3ccccc23)C(=O)N[C@@H](CO)C(=O)N[C@@H](Cc2c[nH]c3ccccc23)C(=O)N1C` [Example 5164] ({CH2CO}-Y[NMeA]DP[Dap]L[Hyp]WSW[NMeNle][NMeNle]ECG-NH2; thioether N-14): 1 to 9.9 nM.

In the case of `CCCC[C@H]1C(=O)N(C)[C@@H](CCCC)C(=O)N[C@@H](CCC(=O)O)C(=O)N[C@H](C(=O)NCC(N)=O)CSCC(=O)N[C@@H](Cc2ccc(O)cc2)C(=O)N(C)[C@@H](C)C(=O)N[C@@H](CC(N)=O)C(=O)N2CCC[C@H]2C(=O)N[C@@H](CN)C(=O)N[C@@H](CC(C)C)C(=O)N2C[C@H](O)C[C@H]2C(=O)N[C@@H](Cc2c[nH]c3ccccc23)C(=O)N[C@@H](CO)C(=O)N[C@@H](Cc2c[nH]c3ccccc23)C(=O)N1C` [Example 5165] ({CH2CO}-Y[NMeA]NP[Dap]L[Hyp]WSW[NMeNle][NMeNle]ECG-NH2; thioether N-14), the IC50 fell in the range of 1 to 9.9 nM.

As for `CCCC[C@H]1C(=O)N(C)[C@@H](CCCC)C(=O)N[C@@H](C)C(=O)N[C@H](C(=O)NCC(N)=O)CSCC(=O)N[C@@H](Cc2ccc(O)cc2)C(=O)N(C)[C@@H](C)C(=O)N[C@@H](CC(N)=O)C(=O)N2CCC[C@H]2C(=O)N[C@@H](CN)C(=O)N[C@@H](CC(C)C)C(=O)N2C[C@H](O)C[C@H]2C(=O)N[C@@H](Cc2c[nH]c3ccccc23)C(=O)N[C@@H](CCN)C(=O)N[C@@H](Cc2cn(CC(=O)O)c3ccccc23)C(=O)N1C` [Example 5166] ({CH2CO}-Y[NMeA]NP[Dap]L[Hyp]W[Dab][Trp(1-CH2COOH)][NMeNle][NMeNle]ACG-NH2; thioether N-14), the IC50 is 10 to 99.9 nM. For `CCCC[C@H]1C(=O)N(C)[C@@H](CCCC)C(=O)N[C@@H](CCC(=O)O)C(=O)N[C@H](C(=O)NCC(N)=O)CSCC(=O)N[C@@H](Cc2ccc(O)cc2)C(=O)N(C)[C@@H](C)C(=O)N[C@@H](CC(N)=O)C(=O)N2CCC[C@H]2C(=O)N[C@@H](CO)C(=O)N[C@@H](CCC(=O)O)C(=O)N2C[C@H](O)C[C@H]2C(=O)N[C@@H](Cc2c[nH]c3ccccc23)C(=O)N[C@@H](CCN)C(=O)N[C@@H](Cc2c[nH]c3ccccc23)C(=O)N1C` [Example 5167] ({CH2CO}-Y[NMeA]NPSE[Hyp]W[Dab]W[NMeNle][NMeNle]ECG-NH2; thioether N-14) the value was 1 to 9.9 nM; for `CCCC[C@H]1C(=O)N(C)[C@@H](CCCC)C(=O)N[C@@H](C)C(=O)N[C@H](C(=O)NCC(N)=O)CSCC(=O)N[C@@H](Cc2ccc(O)cc2)C(=O)N(C)[C@@H](C)C(=O)N[C@@H](CC(N)=O)C(=O)N2CCC[C@H]2C(=O)N[C@@H](CN)C(=O)N[C@@H](CCC(=O)O)C(=O)N2C[C@H](O)C[C@H]2C(=O)N[C@@H](Cc2c[nH]c3ccccc23)C(=O)N[C@@H](CCN)C(=O)N[C@@H](Cc2cn(CC(=O)O)c3ccccc23)C(=O)N1C` [Example 5168] ({CH2CO}-Y[NMeA]NP[Dap]E[Hyp]W[Dab][Trp(1-CH2COOH)][NMeNle][NMeNle]ACG-NH2; thioether N-14), 1 to 9.9 nM; for `CCCC[C@H]1C(=O)N(C)[C@@H](CCCC)C(=O)N[C@@H](CC(C)C)C(=O)N[C@H](C(=O)NCC(N)=O)CSCC(=O)N[C@@H](Cc2ccc(O)cc2)C(=O)N(C)[C@@H](C)C(=O)N[C@@H](CC(N)=O)C(=O)N2CCC[C@H]2C(=O)N[C@@H](Cc2c[nH]cn2)C(=O)N[C@@H](CCC(=O)O)C(=O)N2C[C@H](O)C[C@H]2C(=O)N[C@@H](Cc2c[nH]c3ccccc23)C(=O)N[C@H](C)C(=O)N[C@@H](Cc2csc3ccccc23)C(=O)N1C` [Example 5169] ({CH2CO}-Y[NMeA]NPHE[Hyp]W[dA][Bta][NMeNle][NMeNle]LCG-NH2; thioether N-14), 1 to 9.9 nM.
